Test results: patent US20140271930A1, “NONINVASIVE METHOD FOR MEASURING METABOLITES FOR SKIN HEALTH” (priority 2013, published 2014)
Marks after values point to notes of the source that are not given here.

System: scalp of dandruff and non-dandruff subjects
Test: Metabolite expression profiling (LC/MS/MS, GC/MS/MS) of scalp D-Squame tape strip extracts: non-dandruff, dandruff baseline, dandruff after 3 weeks anti-dandruff shampoo
Format: in vivo, human
Details: for Fold Change Wk 3 Sel vs Dandruff Baseline / Fold Change Wk 3 ZPT vs Dandruff Baseline / Fold Change Wk 3 ZPT vs Non-Dan Baseline / Fold Change Wk 3 Sel vs Non-Dan Baseline: metabolite level in scalp tape strips; for Fold Change Wk 3 Sel vs Dandruff Baseline / Fold Change Wk 3 ZPT vs Dandruff Baseline: standardized to soluble protein; for Fold Change Wk 3 Sel vs Dandruff Baseline: dandruff subjects after 3 weeks 1% selenium sulfide shampoo vs own baseline; for Fold Change Wk 3 ZPT vs Dandruff Baseline: dandruff subjects after 3 weeks 1% zinc pyrithione shampoo vs own baseline; for Fold Change Wk 3 ZPT vs Non-Dan Baseline: dandruff subjects after 3 weeks 1% ZPT shampoo vs non-dandruff subjects; for Fold Change Wk 3 Sel vs Non-Dan Baseline: dandruff subjects after 3 weeks 1% selenium sulfide shampoo vs non-dandruff subjects; for reduction / decrease of metabolite level vs dandruff baseline: after three weeks ZPT shampoo; for decrease of metabolite level vs dandruff baseline: after three weeks selenium sulfide shampoo
Text: In an embodiment, the use of an adhesive device can be used to achieve such sampling. In preparation for such a sampling study for a dandruff sampling, at a baseline visit, a qualified screening grader will complete adherent scalp flaking score (ASFS) grading for each subject and the highest flaking octant will be identified for tape strip sampling. The highest flaking octant will be sampled at baseline and at various time points during and after treatment with product. Tape strips samples will be collected from each subject at each time point (e.g., baseline and week 3).
The tape strip sampling procedure is repeated additional times, as needed, at the same site placing each D-Squame® tape disc on top of the prior sampled area. The D-Squame® tapes after sample collection are placed into the appropriately labeled wells in a labeled plate.
Following the sampling, an extraction and quantitation procedure is conducted. In an embodiment of the present invention, quantitation of small molecules from extracts of D-Squame® Tape Samples can be conducted via analysis by either LC/MS/MS or GC/MS/MS. In this embodiment of the present invention, the sample extraction in preparation for Metabolite expression profiling technology was performed.
The D-Squame® tape sample plates are removed from −80° C. freezer where they are stored following sample collection, and placed on dry ice. The tape strips are inserted into pre-labeled polypropylene collection tubes, adhesive side facing inward. Extraction buffer containing methanol and water is added to each collection tube and then extracted on ice using sonication for 15 min. If necessary, additional tapes are placed in the collection tube containing the extract solution and the extraction process is repeated as a means of concentrating the sample. Each extract solution is isolated from the tape strip and an aliquot of each sample is placed into a pre-labeled polypropylene collection tubes and frozen at −80° C. for metabolite expression profiling analysis. A separate aliquot is specified for soluble protein analysis using a BCA™ Protein Assay Kit. For this analysis, the aliquot consisting of methanol and water is taken to dryness under a gentle stream of nitrogen. The sample is resuspended in an appropriate aqueous buffer (e.g., PBS/SDS (1× PBS+0.2% SDS) and analyzed for soluble protein.
The extracts are analyzed by GC/MS/MS and LC/MS/MS in positive and negative ion mode. Chromatographic separation followed by full scan mass spectra and MS/MS spectra is carried out to record and quantify all detectable ions present in the samples. Metabolites with known chemical structure can be identified by matching the ions' chromatographic retention index and mass spectra fragmentation signatures with reference library entries created from authentic standard metabolites under the identical analytical procedure as the experimental samples. Welch's Two Sample t-tests and matched-pair t-tests are used to analyze the data. […] The statistical analyses are performed on natural log-transformed data to reduce the effect of any potential outliers in the data. Welch's Two Sample t-test comparisons are made between the means of each biochemical from the various groups listed at the top of the tables and are calculated using either or both of the statistical analysis software programs: Array Studio (Omicsoft, Inc) or “R” from the Free Software Foundation, Inc.
Subjects are evaluated by a qualified grader to establish their scalp status. Dandruff subjects are identified by their level of visible flaking as assessed by a qualified grader. Non-dandruff healthy scalp subjects are evaluated at baseline to establish normalized levels of each biomarker. In this study, there are 60 non-dandruff subjects that are evaluated at baseline. […] They are evaluated at baseline, and after 3 weeks of product usage.

[1] = dandruff subjects after 3 weeks treatment with Sel shampoo, metabolite level in scalp tape strip extract
[2] = dandruff subjects after 3 weeks treatment with ZPT shampoo, metabolite level in scalp tape strip extract

| SMILES | Mean Values WEEK 3 TRT Sel [1] | Mean Values WEEK 3 TRT ZPT [2] | Fold Change Wk 3 Sel vs Dandruff Baseline | Fold Change Wk 3 ZPT vs Dandruff Baseline | Fold Change Wk 3 ZPT vs Non-Dan Baseline | Fold Change Wk 3 Sel vs Non-Dan Baseline | reduction / decrease of metabolite level vs dandruff baseline | decrease of metabolite level vs dandruff baseline | Mean Values WEEK 3 TRT ZPT (relative metabolite level in scalp tape strips, dandruff subjects after 3 weeks 1% ZPT shampoo) | Mean Values WEEK 3 TRT Sel (relative metabolite level in scalp tape strips, dandruff subjects after 3 weeks 1% selenium sulfide shampoo) |
| --- | --- | --- | --- | --- | --- | --- | --- | --- | --- | --- |
| CCCCCCCCCCCCCCCCCCCC(=O)O [arachidate (20:0), arachidate] | 0.6154 | 0.7662 | 0.42* fold | 0.55* fold | 0.56*** fold | 0.45*** fold |  |  |  |  |
| CCCCC/C=C\C/C=C\C/C=C\C/C=C\CCCC(=O)O [arachidonate (20:4n6), arachidonate] |  |  |  |  |  |  | 44% | 70% |  |  |
| CCCCCCCCCCCCCCCCCCCCCC(=O)O [behenate (22:0), behenate] |  |  | 0.84 fold | 0.47 fold | 0.34* fold | 0.57*** fold |  |  |  |  |
| O=C(O)/C=C\c1cnc[nH]1 [cis-urocanate] |  |  | 1.22 fold | 1.19 fold | 0.91 fold | 0.99 fold |  |  |  |  |
| CCCCC/C=C\C/C=C\CCCCCCCCCC(=O)O [dihomo-linoleate (20:2n6), dihomo-linoleate] | 0.214 | 0.3984 | 0.15* fold | 0.3* fold | 0.32* fold | 0.17* fold |  |  |  |  |
| CCCCC/C=C\C/C=C\CCCCCCCCCCCC(=O)O [docosadienoate (22:2n6), docosadienoate] | 0.1554 | 0.3022 | 0.12* fold | 0.24* fold | 0.28* fold | 0.14* fold |  |  |  |  |
| CC/C=C\C/C=C\C/C=C\CCCCCCCCCCCC(=O)O [docosatrienoate (22:3n3), docosatrienoate] | 0.2735 | 0.5705 | 0.13* fold | 0.26* fold | 0.32 fold | 0.15* fold |  |  |  |  |
| O=P(O)(O)OCC(O)CO (stereo not drawn) [glycerol 3-phosphate (G3P)] | 0.8007 | 0.5943 |  |  |  |  |  |  |  |  |
| O=C(O)CCc1cnc[nH]1 [imidazole propionate] |  |  |  |  |  |  |  |  | 0.8095 | 0.7836 |
| CC(C)CCCCCCCCCCCCC(=O)O [isopalmitic acid] | 0.3034 | 0.5169 | 0.23* fold | 0.41* fold | 0.41* fold | 0.24* fold |  |  |  |  |
| CCCCC/C=C\C/C=C\CCCCCCCC(=O)O [linoleate (18:2n6), linoleate] |  |  |  |  |  |  | 82% | 78% |  |  |
| CCCCCCCCCCCCCCCCC(=O)O [margarate (17:0), margarate] | 0.3903 | 0.6953 | 0.31* fold | 0.6*** fold | 0.45* fold | 0.25* fold |  |  |  |  |
| CCCCCCCCCCCCCCCCCCC(=O)O [nonadecanoate (19:0), nonadecanoate] | 0.3608 | 0.5421 | 0.29* fold | 0.47* fold | 0.39* fold | 0.26* fold |  |  |  |  |
| CCCCCCCC/C=C\CCCCCCCC(=O)NCCO [oleic ethanolamide] | 1.1213 | 1.5447 |  |  |  |  |  |  |  |  |
